Experiments:
human B cells [1] = test: Human B cell anti-IgM proliferation assay; format: cell-based; conditions: thymidine incorporation, day four
mouse B cells = test: BAFF B cell survival assay (Cell Titer Glo); format: cell-based; conditions: BAFF induced; mean ± SD
[2] = test system: nuclear RelA (canonical NF-κB signaling); test: High content nuclear RelA imaging, TNF-stimulated HeLa cells; format: cell-based, human; conditions: TNF induced
Description: (§1) The HeLa cell line was used to define the cellular selectivity of NIK inhibitors toward inhibition of classical vs. non-classical NF-κB signaling using high content cellular imaging assays. For the nuclear translocation assay p52 (non-canonical NF-κB signaling), HeLa cells were treated with different concentrations of compounds previously diluted in DMSO (final [DMSO] = 0.2% in all wells) in DMEM medium (10% FBS, 2 mM Glutamine) and then stimulated with 300 ng/mL of an anti-lymphotoxin beta receptor antibody for 4.5 h. In the REL-A nuclear translocation assay, HeLa cells were incubated with compounds for 4 h 50 min before stimulating them with 2 ng/mL TNF (R&D Systems) for 10 min. Cells were fixed with 4% paraformaldehyde, permeabilized by adding 0.1% Triton X-100 in phosphate buffered saline, and then are incubated with either 2 μg/mL anti-p52 antibody or 400 ng/mL anti-REL-A (p65) antibody. Finally, the cells are incubated with an Alexa488-labeled secondary antibody (Invitrogen) and DRAQ5 DNA stain (Biostatus). Imaging was carried out using an Opera reader (Perkin Elmer) and data were analyzed with Acapella software (Perkin Elmer). The p52 or REL-A translocation into the nucleus is quantified by the ratio of the nuclear to cytoplasmic signal intensity.

[3] = test system: nuclear p52 (non-canonical NF-κB signaling); test: High content nuclear p52 imaging, anti-LTβR-stimulated HeLa cells; format: cell-based, human; conditions: anti-LTβR induced, mean ± SD
Description: as §1

[4] = test system: rhCD40L induced ICOSL expression on human B cells; test: ICOSL expression on human B cell assay; format: cell-based; conditions: ICOSL MFI by FACS, mean ± SD, read-out: CD40-induced ICOSL IC50
Description: Human B cells were isolated from whole blood. B cells were enriched by RosetteSep protocol (Stem Cell Technologies), and then isolated using Human B cell isolation kit II (Miltenyi). […] Mean fluorescent intensity (MFI) of CD40L and BAFF induced ICOSL expression was measured by flow cytometry on cells stained with anti-CD20 and anti-ICOSL, using a FACS Calibur instrument (BD). Plots and IC50 measurements were generated using GraphPad Prism Software.

[5] = test system: IL-12p40 production from human monocyte derived DC; test: CD40L induced IL-12p40 production from human DCs; format: cell-based; conditions: human monocyte derived DC, rhCD40L; mean ± SD; read-out: CD40-induced IL-12 p40 IC50
Description: Human monocytes were enriched from whole blood (Monocyte enrichment RosetteSep, Stem Cell) followed by isolation using Monocyte Isolation Kit II (Miltenyi). Isolated monocytes were cultured (RPMI-10% FBS, penicillin/streptomycin, glutamine) with rhGM-CSF (100 ng/mL) and rhIL-4 (6.5 ng/mL) (R&D Systems) for 5 days with GM-CSF replacement on day 3. On Day 5 immature monocyte derived DCs were monitored for differentiation by flow cytometry ([…], CD83^low CD86^low CD209^+/hi). […] After 24 h plates were centrifuged and supernatants were removed for IL-12p40 cytokine measurement by ELISA (BD Biosciences). Plots and IC50 measurements were generated using GraphPad Prism software.

Balb/c mice = test: TNP-OVA immunization model; format: in vivo, mouse; conditions: 300 mg/kg P.O. BID, 10 days
Description: Four to nine 8-week-old female Balb/c mice were randomized into experimental groups upon delivery from vendor. […] Investigators were not blinded to experimental samples.

human B cells [6] = test: BAFF B cell survival assay (Cell Titer Glo); format: cell-based; conditions: BAFF induced; mean ± SD
Description: Human B cells were isolated using Miltenyi Human B cell isolation kit following ficoll separation of buffy coats. […] Mouse B cells were isolated from mouse spleen using Miltenyi mouse B cell isolation kit II. Cells were plated in Co-star 96-well plates at either 50,000 cells/well for the survival assays or at 150,000 cells/well for the proliferation assays. Compounds diluted in DMSO (final DMSO assay concentration = 0.1%) were added to the cells. The cells were incubated with compound for one hour at 37 °C. Stimulus was then added to the plates and survival or proliferation was measured after four days. For the proliferation assays, cells were treated with either Anti-IgM (20 μg/mL) or rhCD40L (10 μg/mL; R&D) or anti-mouse CD40 (100 ng/mL). Proliferation was measured using thymidine incorporation on day four. For the BAFF survival assay, cells were treated with human or mouse rBAFF (R&D Systems) at 10 ng/ml followed by Cell Titer Glo (Promega) to measure survival on day four.

mouse NIK = target: T1, mouse NIK (Mus musculus, UniProt Q9WUL6); test: NIK Transcreener ADP enzymatic assay; format: biochemical; conditions: mouse NIK enzymatic activity; mean ± SD
T1 construct: mouse NIK kinase domain (a.a. 329–675) (1 nM); made in house; host or cells: baculovirus-infected insect cells
T1 sequence (Q9WUL6 329-675): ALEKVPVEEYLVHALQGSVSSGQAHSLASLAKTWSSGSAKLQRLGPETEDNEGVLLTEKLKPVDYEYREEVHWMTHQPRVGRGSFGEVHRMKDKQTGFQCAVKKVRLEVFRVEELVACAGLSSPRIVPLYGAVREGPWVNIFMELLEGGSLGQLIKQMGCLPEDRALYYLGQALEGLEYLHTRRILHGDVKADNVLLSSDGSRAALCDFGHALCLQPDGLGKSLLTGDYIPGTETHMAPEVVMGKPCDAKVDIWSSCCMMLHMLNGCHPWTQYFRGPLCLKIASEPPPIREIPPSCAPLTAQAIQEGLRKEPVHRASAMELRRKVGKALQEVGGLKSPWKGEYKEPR

human B cells [7] = test: Human B cell rhCD40L proliferation assay; format: cell-based; conditions: thymidine incorporation, day four; read-out: Human B cell anti-CD40 proliferation IC50

IC50 [2]: > 2000 nM
IC50 [3]: 43 nM
IC50 [4]: 58.7 nM
IC50 [5]: 60.7 nM
Ki (mouse NIK): 0.84 nM
Compound: CN1CC[C@@](O)(C#Cc2cccc(-n3nc(C(N)=O)c4ccccc43)c2)C1=O [NIK SMI2]
IC50 (human B cells [1]): > 10000 nM
IC50 (mouse B cells): 1750 nM
germinal center B cell development and antigen-specific IgG1 production (Balb/c mice): reduced
IC50 (human B cells [6]): 360 nM
IC50 (human B cells [7]): > 10000 nM
